Like-named read-outs stand apart in the source and are kept apart here.
Experiments:
[1] = molecular target: human TYK2 (JH2domain-pseudokinase) (Homo sapiens (Human), UniProt P29597); assay: TYK2 JH2 Domain Binding Assay (KINOMEscan)
Method in brief: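 The construct was human TYK2 G556–D888 fused to the NFkB DNA-binding domain and expressed in HEK293 cells; unpurified extract was incubated with compound and liganded beads for 1 hour at room temperature.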

[2] = molecular target: Tyk2 kinase domain (DH1) (Homo sapiens (Human), UniProt P29597); assay: Tyk2 Radioactive Kinase Assay; assay type: biochemical; settings: for inhibition at 10 µM: read-out: Tyk2 JH1% Inhibition @ 10 μM
Method in brief: (§1)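 Read-out is percent inhibition from a radioactive kinase reaction, measured with compound at 10 μM.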

[3] = molecular target: JAK2 kinase domain (JH1) (Homo sapiens (Human), UniProt O60674); assay: JAK2 Radioactive Kinase Assay; assay type: biochemical; settings: for inhibition at 10 µM: read-out: JAK2 JH1% Inhibition @ 10 μM
Method in brief: as §1

[4] = molecular target: Tyk2/JAK2 (heterodimeric complex) (Homo sapiens (Human), UniProt P29597); assay: IL-12 Induced pSTAT4 in Human PBMC; assay type: cell-based; settings: 1.7 ng/mL IL-12
From the text: The IL-12 Induced pSTAT4 assay evaluates the inhibition of IL-12 induced STAT4 phophorylation mediated by Tyk2/JAK2 (heterodimeric complex).

[5] = molecular target: JAK2/JAK2 homdimeric complex (Homo sapiens (Human), UniProt O60674); assay: GM-CSF Induced pSTAT5 in Human PBMC; assay type: cell-based; settings: GM-CSF 5 ng/mL for 20 minutes, pSTAT5 by MSD, read-out: PBMC_GMCSF_pSTAT5 IC50
JAK2/JAK2 homdimeric complex, sequence (O60674 whole entry): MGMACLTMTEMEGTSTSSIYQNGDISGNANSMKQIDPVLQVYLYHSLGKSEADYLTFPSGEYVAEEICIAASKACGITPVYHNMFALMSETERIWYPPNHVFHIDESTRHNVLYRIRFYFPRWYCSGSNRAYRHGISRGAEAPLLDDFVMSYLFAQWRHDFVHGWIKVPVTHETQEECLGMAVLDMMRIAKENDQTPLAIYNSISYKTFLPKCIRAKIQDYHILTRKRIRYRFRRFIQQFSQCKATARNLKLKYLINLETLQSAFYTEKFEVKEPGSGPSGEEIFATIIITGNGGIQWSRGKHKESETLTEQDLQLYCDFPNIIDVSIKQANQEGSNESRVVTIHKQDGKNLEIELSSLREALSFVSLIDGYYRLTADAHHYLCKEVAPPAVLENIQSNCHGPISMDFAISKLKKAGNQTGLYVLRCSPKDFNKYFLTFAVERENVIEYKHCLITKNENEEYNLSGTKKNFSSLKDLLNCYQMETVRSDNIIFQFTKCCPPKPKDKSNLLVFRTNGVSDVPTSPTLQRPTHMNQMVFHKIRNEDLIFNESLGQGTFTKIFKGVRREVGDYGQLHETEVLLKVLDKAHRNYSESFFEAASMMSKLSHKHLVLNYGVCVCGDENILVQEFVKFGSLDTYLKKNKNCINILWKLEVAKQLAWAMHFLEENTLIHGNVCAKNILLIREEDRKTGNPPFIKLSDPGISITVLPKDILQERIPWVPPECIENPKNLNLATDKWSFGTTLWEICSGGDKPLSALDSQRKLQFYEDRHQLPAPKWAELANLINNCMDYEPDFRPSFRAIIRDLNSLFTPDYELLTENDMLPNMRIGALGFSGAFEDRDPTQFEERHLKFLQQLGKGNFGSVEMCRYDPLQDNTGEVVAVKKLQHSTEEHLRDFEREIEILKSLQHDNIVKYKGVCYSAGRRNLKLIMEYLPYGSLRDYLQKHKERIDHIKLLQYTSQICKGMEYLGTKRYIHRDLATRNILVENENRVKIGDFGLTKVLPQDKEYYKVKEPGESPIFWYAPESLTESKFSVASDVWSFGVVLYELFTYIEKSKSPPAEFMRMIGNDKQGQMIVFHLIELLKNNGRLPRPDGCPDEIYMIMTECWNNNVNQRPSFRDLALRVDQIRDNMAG
JAK2/JAK2 homdimeric complex, sequence (P32927 17-897 partner): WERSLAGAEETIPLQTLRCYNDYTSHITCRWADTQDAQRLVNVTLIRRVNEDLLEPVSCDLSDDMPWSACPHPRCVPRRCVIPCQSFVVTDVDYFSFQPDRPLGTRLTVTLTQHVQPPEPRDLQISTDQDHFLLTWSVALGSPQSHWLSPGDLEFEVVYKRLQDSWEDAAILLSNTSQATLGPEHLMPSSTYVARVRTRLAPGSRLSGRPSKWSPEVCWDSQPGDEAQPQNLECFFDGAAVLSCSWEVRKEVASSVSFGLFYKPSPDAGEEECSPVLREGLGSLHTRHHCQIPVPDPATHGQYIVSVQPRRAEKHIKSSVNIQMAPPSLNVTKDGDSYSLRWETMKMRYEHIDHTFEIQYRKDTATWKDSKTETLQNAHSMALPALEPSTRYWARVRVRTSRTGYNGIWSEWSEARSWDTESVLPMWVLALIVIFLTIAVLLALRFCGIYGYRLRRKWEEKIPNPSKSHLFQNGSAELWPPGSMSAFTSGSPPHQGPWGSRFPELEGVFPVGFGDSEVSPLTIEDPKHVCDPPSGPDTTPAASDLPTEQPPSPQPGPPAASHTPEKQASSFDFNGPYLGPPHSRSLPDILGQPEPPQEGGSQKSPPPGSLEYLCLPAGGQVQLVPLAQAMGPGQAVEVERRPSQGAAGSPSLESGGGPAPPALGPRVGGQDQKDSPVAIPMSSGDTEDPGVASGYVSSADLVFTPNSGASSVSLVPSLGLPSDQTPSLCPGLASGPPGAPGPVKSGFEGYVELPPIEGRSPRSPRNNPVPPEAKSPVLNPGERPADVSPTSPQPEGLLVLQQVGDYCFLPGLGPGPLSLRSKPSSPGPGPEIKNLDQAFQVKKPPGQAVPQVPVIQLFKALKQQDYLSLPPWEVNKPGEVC

Tyk2 kinase domain (DH1), sequence (P29597 897-1176): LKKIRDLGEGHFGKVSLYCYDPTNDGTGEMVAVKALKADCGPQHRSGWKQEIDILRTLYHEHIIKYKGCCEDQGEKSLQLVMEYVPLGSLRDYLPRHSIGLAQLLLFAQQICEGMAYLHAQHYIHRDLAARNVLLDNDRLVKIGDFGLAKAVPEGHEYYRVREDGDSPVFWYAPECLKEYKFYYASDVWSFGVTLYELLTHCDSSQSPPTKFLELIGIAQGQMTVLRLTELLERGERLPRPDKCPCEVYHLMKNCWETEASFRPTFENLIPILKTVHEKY
Tyk2/JAK2 (heterodimeric complex), sequence (P29597 whole entry, other chains not shown): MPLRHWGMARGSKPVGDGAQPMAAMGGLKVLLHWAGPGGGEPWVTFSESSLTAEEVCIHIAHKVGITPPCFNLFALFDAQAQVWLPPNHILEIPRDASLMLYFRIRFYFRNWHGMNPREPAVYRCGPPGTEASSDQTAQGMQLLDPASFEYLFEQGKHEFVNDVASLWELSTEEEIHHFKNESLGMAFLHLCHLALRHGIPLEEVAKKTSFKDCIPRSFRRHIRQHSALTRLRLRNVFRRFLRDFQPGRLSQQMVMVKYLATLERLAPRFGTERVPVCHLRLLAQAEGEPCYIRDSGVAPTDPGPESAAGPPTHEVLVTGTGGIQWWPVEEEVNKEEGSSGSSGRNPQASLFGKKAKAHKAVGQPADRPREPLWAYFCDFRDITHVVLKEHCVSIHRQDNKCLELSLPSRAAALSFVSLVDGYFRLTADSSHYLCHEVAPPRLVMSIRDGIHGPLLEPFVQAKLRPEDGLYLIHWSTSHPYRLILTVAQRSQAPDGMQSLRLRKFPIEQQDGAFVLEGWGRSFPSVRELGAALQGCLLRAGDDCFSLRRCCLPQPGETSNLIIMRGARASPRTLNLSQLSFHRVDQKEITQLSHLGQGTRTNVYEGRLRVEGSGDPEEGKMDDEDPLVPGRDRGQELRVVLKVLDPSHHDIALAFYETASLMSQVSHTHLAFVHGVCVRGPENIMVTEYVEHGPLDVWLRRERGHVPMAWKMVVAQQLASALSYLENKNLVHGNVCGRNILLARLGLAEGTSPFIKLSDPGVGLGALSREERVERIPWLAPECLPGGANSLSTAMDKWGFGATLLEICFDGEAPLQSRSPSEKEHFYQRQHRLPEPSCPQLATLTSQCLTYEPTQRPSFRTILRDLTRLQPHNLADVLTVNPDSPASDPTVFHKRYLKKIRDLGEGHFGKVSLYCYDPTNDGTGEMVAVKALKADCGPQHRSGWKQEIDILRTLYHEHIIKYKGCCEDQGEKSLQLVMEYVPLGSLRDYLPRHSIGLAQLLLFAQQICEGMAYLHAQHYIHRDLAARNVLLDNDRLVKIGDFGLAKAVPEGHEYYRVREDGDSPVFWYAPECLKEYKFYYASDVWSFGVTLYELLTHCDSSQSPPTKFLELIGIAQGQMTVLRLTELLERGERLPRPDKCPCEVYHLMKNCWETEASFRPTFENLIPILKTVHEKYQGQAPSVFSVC
JAK2 kinase domain (JH1), sequence (O60674 849-1124): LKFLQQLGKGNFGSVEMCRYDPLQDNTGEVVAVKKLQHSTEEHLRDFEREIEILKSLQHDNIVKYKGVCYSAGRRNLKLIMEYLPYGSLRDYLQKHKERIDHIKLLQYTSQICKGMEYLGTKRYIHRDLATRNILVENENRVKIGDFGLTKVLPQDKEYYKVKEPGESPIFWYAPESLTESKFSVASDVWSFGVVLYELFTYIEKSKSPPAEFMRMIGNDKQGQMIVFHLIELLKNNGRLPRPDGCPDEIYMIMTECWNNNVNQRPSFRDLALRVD
human TYK2 (JH2domain-pseudokinase), sequence (P29597 556-888): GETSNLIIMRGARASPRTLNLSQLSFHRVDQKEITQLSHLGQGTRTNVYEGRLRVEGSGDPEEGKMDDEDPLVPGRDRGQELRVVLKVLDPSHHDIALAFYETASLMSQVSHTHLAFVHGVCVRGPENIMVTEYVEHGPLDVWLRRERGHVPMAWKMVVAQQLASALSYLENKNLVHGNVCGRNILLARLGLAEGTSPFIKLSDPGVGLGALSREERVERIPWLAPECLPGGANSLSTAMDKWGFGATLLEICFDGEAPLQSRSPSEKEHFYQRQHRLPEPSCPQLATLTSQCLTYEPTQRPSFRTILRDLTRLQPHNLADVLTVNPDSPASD

Compound	Kd [1] [nM]	inhibition at 10 µM ([2]; compound at 10 μM, ATP 10 μM) [%]	inhibition at 10 µM ([3]; compound at 10 μM, ATP 10 μM) [%]	IC50 [4] [nM]	IC50 [5] [nM]	inhibition at 10 µM ([2]; 10 μM compound, 10 μM ATP) [%]	inhibition at 10 µM ([3]; 10 μM compound, 10 μM ATP) [%]	Tyk2 JH1% Inhibition @ 10 μM ([2]; compound at 10 μM, ATP 10 μM)	JAK2 JH1% Inhibition @ 10 μM ([3]; compound at 10 μM, ATP 10 μM)	Tyk2 JH1% Inhibition @ 10 μM ([2]; 10 μM compound, 10 μM ATP)	JAK2 JH1% Inhibition @ 10 μM ([3]; 10 μM compound, 10 μM ATP)
CNc1cc(Nc2cccn([C@H]3CC[C@H](OC)CC3)c2=O)nc2c(C(=O)NCC3(CO)CC3)cnn12 [I-545]	< 0.2	< 50	< 50	100 to 500	> 2500	–	–	–	–	–	–
CNc1cc(Nc2cccn(-c3ccc(C4CC4)nn3)c2=O)nc2c(C(=O)NC3CCC3)cnn12 [I-240]	< 0.2	< 50	< 50	< 100	> 2500	–	–	–	–	–	–
[2H]C([2H])([2H])Oc1ncccc1Nc1cc(NC)n2ncc(C(=O)NC3CC4(COC4)C3)c2n1 [I-417, 5-((2-(methoxy-d3)pyridin-3-yl)amino)-7-(methylamino)-N-(2-oxaspiro[3.3]heptan-6-yl)pyrazolo[1,5-a]pyrimidine-3-carboxamide]	–	< 50	< 50	100 to 500	> 50000	–	–	–	–	–	–
CNc1cc(Nc2cccnc2OC2CC2)nc2c(C(=O)N[C@H]3CC[C@@H]3O)cnn12 [I-397]	–	–	–	< 100	> 50000	–	–	A (percent inhibition at 10 μM lower than 50)	A (percent inhibition at 10 μM lower than 50)	–	–
CNc1cc(-c2cn(CCN3CCN(C)CC3)c3ncccc23)nc2c(C(=O)N[C@H]3CC[C@@H]3OC)cnn12 [I-952]	–	–	–	100 to 500	> 2500	–	–	–	–	A (percent inhibition at 10 μM lower than 50)	A (percent inhibition at 10 μM lower than 50)
CNc1cc(-c2cn(CCN3CCCCC3)c3ncccc23)nc2c(C(=O)N[C@@H]3CC[C@H]3O)cnn12 [I-837]	–	–	–	< 100	> 12500	< 50	< 50	–	–	–	–
CNc1cc(Nc2cccn(C3CCCCC3)c2=O)nc2c(C(=O)N[C@@H]3CC[C@H]3O)cnn12 [I-943]	–	–	–	< 100	> 50000	< 50	< 50	–	–	–	–
CNc1cc(Nc2cccn(-c3nc(C)co3)c2=O)nc2c(C(=O)N[C@@H]3CC[C@@H]3O)cnn12 [I-706]	–	–	–	< 100	> 50000	–	–	A (percent inhibition at 10 μM lower than 50)	A (percent inhibition at 10 μM lower than 50)	–	–
CNc1cc(-c2cn(C3CC3)c3ncccc23)nc2c(C(=O)N[C@H]3CC[C@H]3O)cnn12 [I-992, 5-(1-cyclopropyl-1H-pyrrolo[2,3-b]pyridin-3-yl)-N-((1S,2R)-2-hydroxycyclobutyl)-7-(methylamino)pyrazolo[1,5-a]pyrimidine-3-carboxamide]	–	–	–	< 100	> 50000	–	–	–	–	A (percent inhibition at 10 μM lower than 50)	A (percent inhibition at 10 μM lower than 50)
CNc1cc(Nc2cccn([C@@H]3CCC[C@H](OC)C3)c2=O)nc2c(C(=O)NC3CC3)cnn12 [I-621]	–	–	–	< 100	> 50000	–	–	A (percent inhibition at 10 μM lower than 50)	A (percent inhibition at 10 μM lower than 50)	–	–
CNc1cc(Nc2cccc3ocnc23)nc2c(C(=O)N[C@@H]3CC[C@H]3O)cnn12 [I-857]	–	–	–	100 to 500	> 50000	< 50	< 50	–	–	–	–

The next lines start with results.

Kd [1] [nM]	inhibition at 10 µM ([2]; compound at 10 μM, ATP 10 μM) [%]	inhibition at 10 µM ([3]; compound at 10 μM, ATP 10 μM) [%]	IC50 [4] [nM]	IC50 [5] [nM]	inhibition at 10 µM ([2]; 10 μM compound, 10 μM ATP) [%]	inhibition at 10 µM ([3]; 10 μM compound, 10 μM ATP) [%]	Compound	Tyk2 JH1% Inhibition @ 10 μM ([2]; compound at 10 μM, ATP 10 μM)	JAK2 JH1% Inhibition @ 10 μM ([3]; compound at 10 μM, ATP 10 μM)	Tyk2 JH1% Inhibition @ 10 μM ([2]; 10 μM compound, 10 μM ATP)	JAK2 JH1% Inhibition @ 10 μM ([3]; 10 μM compound, 10 μM ATP)
< 0.2	< 50	< 50	< 100	> 50000	–	–	CNc1cc(Nc2cccnc2OC(C)C)nc2c(C(=O)N[C@H]3C[C@H]3F)cnn12 [I-147]	–	–	–	–
< 0.2	< 50	< 50	< 100	> 50000	–	–	[2H]C([2H])([2H])Oc1ncccc1Nc1cc(NC)n2ncc(C(=O)N[C@@H]3CCC[C@@H](O)C3)c2n1 [I-499]	–	–	–	–
< 0.2	< 50	< 50	< 100	> 12500	–	–	CNc1cc(Nc2cccn(-c3ccc(OC)cn3)c2=O)nc2c(C(=O)N[C@H]3C[C@H]3F)cnn12 [I-265]	–	–	–	–
< 0.2	< 50	< 50	< 100	> 50000	–	–	CNc1cc(Nc2cccn(-c3cccc(C(C)(C)O)n3)c2=O)nc2c(C(=O)N[C@H]3C[C@H]3F)cnn12 [I-123]	–	–	–	–
< 0.2	< 50	< 50	< 100	> 50000	–	–	[2H]C([2H])([2H])Oc1ncc(C)cc1Nc1cc(NC)n2ncc(C(=O)NC3CC3)c2n1 [I-258]	–	–	–	–
0.2 to 1	< 50	< 50	< 100	> 2500	–	–	CNc1cc(-c2cn(C(C)C)c3ncccc23)nc2c(C(N)=O)cnn12 [I-222, 5-(1-isopropyl-1H-pyrrolo[2,3-b]pyridin-3-yl)-7-(methylamino)pyrazolo[1,5-a]pyrimidine-3-carboxamide]	–	–	–	–
< 0.2	< 50	< 50	< 100	> 2500	–	–	CNc1cc(Nc2cc(Cl)cn(-c3cnc(C(=O)N(C)C)cn3)c2=O)nc2c(C(=O)NC3CC3)cnn12 [I-318]	–	–	–	–
< 0.2	–	–	< 100	> 12500	–	–	CNc1cc(-c2cn(C(C)C)c3ncccc23)nc2c(C(=O)N[C@H]3CC[C@@H]3O)cnn12 [I-639]	A (percent inhibition at 10 μM lower than 50)	A (percent inhibition at 10 μM lower than 50)	–	–
< 0.2	< 50	< 50	< 100	> 12500	–	–	CNc1cc(Nc2cccn(-c3ccccn3)c2=O)nc2c(C(=O)N[C@H]3C[C@H]3F)cnn12 [I-681]	–	–	–	–
< 0.2	< 50	< 50	< 100	> 50000	–	–	CNc1cc(Nc2cccn([C@H]3CC[C@](C)(OC)CC3)c2=O)nc2c(C(=O)N[C@@H]3CC[C@@H]3O)cnn12 [I-670, N-(2-hydroxycyclobutyl)-5-((1-((1R,4S)-4-methoxy-4-methylcyclohexyl)-2-oxo-1,2-dihydropyridin-3-yl)amino)-7-(methylamino)pyrazolo[1,5-a]pyrimidine-3-carboxamide]	–	–	–	–
< 0.2	< 50	< 50	< 100	> 12500	–	–	CNc1cc(Nc2cc(F)cnc2OC2CC2)nc2c(C(=O)NC3CC3)cnn12 [I-274]	–	–	–	–
< 0.2	< 50	< 50	< 100	> 2500	–	–	CNc1cc(-c2cn(C(C)C)c3ncccc23)nc2c(C(=O)N[C@H]3C[C@H](O)C3)cnn12 [I-630, N-((1r, 3r)-3-hydroxycyclobutyl)-5-(1-isopropyl-1H-pyrrolo[2,3-b]pyridin-3-yl)-7-(methylamino)pyrazolo[1,5-a]pyrimidine-3-carboxamide]	–	–	–	–
< 0.2	< 50	< 50	< 100	> 2500	–	–	CNc1cc(Nc2cccn([C@H]3CCCOC3)c2=O)nc2c(C(=O)NC3CCC3)cnn12 [I-354]	–	–	–	–
< 0.2	–	–	< 100	> 50000	–	–	[2H]C([2H])([2H])Oc1ncccc1Nc1cc(NC)n2ncc(C(=O)N[C@H]3CC[C@H](O)C3)c2n1 [I-500]	A (percent inhibition at 10 μM lower than 50)	A (percent inhibition at 10 μM lower than 50)	–	–

From patent US10508120B2, “TYK2 inhibitors and uses thereof” (Nimbus Lakshmi, Inc., priority 2017, dated 2019)
